# Test results published in patent US7087633B2, “Method for treating perinatal asphyxia in a human or animal neonate” (Universitair Medisch Centrum, priority 2000, dated 2006).
# “Also recorded” adds a separate entry of the source.
# Experiments:
# [1] = test system: newborn Dutch store piglets subjected to HI; conditions: for neurologic score / electrical brain activity (aEEG): 3 to 24 h post HI, versus PLAC, repeated ANOVA, all p<0.05; for piglets died post HI: ALLO n=10 (HI complications, 18 h), DFO n=10 (hypovolemic shock, 13 h), 2-IB n=7 (sepsis)
# Method: Following anaesthesia and instrumentation 37 newborn Dutch store piglets (1–3 days old) were subjected to HI by occluding both common carotid arteries with inflatable cuffs and reducing the fraction of inspired oxygen for 60 min. MRS was performed continuously before, during and up to 3 h after start of HI and repeated at 24 h post HI. During hypoxia FiO2 was reduced>on-line=until PCr/Pi had decreased to at least 25% of baseline values. Immediately after HI the piglets received either placebo (PLAC; n=10), ALLO (20 mg/kg iv; n=10), DFO (10 mg/kg iv; n=10) or 2-IB (150 μM i.v.; n=7). Before HI and from 3 to 24 h post HI the piglets were monitored using aEEG for electrical brain activity determination. A neurologic scoring system was used ranging from 4 (normal) to 0 (flat trace). For 1H-MRS a PRESS sequence with CHESS water suppression was used to define a 1.7 ml periventricular voxel (TR 6 s, TE 144 ms, and nt=32 or 64). 31 P— MRS was done using a 4 cm-diameter surface coil for excitation and detection (TR 10 s, nt=32). Peak amplitudes of PCr, Pi, Lac and NAA were determined with time domain fitting procedures (VARPRO). Paired t-tests were used to compare measurements at 24 h versus baseline; repeated ANOVA served to monitor for trends between treatment groups.
# [2] = test system: free radical-induced brain damage in newborns; conditions: pilot study in newborn babies and experimental studies; cited from earlier work
# [3] = test system: brain regions at risk after HI (hippocampus, cortex, striatum and cerebellum); assay: Histological analysis and nitrotyrosylation immunohistochemistry of brain at 24 h post HI; assay type: in vivo, piglet
# crossbred piglets = assay: Postnatal growth experiments in newborn piglets; assay type: in vivo, piglet
# Method: A study in newborn piglets was performed to identify the potential effects of 2-iminobiotin on postnatal growth. Data from 138 crossbred piglets (originating from 28 litters) were collected on a commercial, Dutch pig farm over the period from 21 Jul. 2001 to 6 May 2003.
# neonatal rats [4] = conditions: cited from earlier work
# neonatal rats [5] = conditions: cited from earlier work; remark: listed apart in the source
# neuronal NOS = conditions: injectable intraperitoneally; cited from earlier work
# newborn piglets = conditions: cited from earlier work
# [6] = 24 h post HI versus baseline, ALLO 20 mg/kg iv, DFO 10 mg/kg iv, 2-IB 150 μM i.v.
# [7] = Least Square Means, total 1.1 mg/kg in 24 h after birth, n=67
# [8] = during the first 10 days of life, n=67
compound,measurement,setting,value
"Oc1ncnc2[nH]ncc12 [ALLO, allopurinol, reference compound]",neurologic score / electrical brain activity (aEEG),[1],significant difference
same,PCr/Pi (cerebral energy status),[1]; [6],prevented partly
same,piglets died post HI,[1],1 piglet
same,free radical-induced brain damage in newborns,[2],reduce free radical-induced brain damage in newborns to some extend
"N=C1N[C@H]2[C@H](CS[C@H]2CCCCC(=O)O)N1 [2-IB, 2-iminobiotin]",neurologic score / electrical brain activity (aEEG),[1],significant difference; also recorded: preserved electrical brain activity
same,Lac/NAA,[1]; [6],identical to baseline values; also recorded: prevented increment
same,PCr/Pi (cerebral energy status),[1]; [6],identical to baseline values; also recorded: preserved completely
same,piglets died post HI,[1],1 piglet
same,more effective than treatment with allopurinol and/or deferoxamine,"[1]; in vivo studies involving piglets, versus allopurinol and/or deferoxamine",about 25%
same,more effective than placebo treatment in preventing and/or treating the effects,"[1]; in vivo studies involving piglets, versus placebo",about 60%
same,alive cells in brain regions at risk after HI,[3]; histology,more alive cells
same,necrosis,[3]; histology,less necrosis
same,structural architecture,[3]; histology,better preserved structural architecture
same,nitrotyrosylation staining in the affected areas,[3]; immunohistochemistry,no staining; also recorded: less nitrotyrosylation staining
same,Growth at 6 weeks,crossbred piglets; [7],250 gram/day
same,Growth at 10 days,crossbred piglets; [7],208 gram/day
same,Growth at weaning,crossbred piglets; [7],248 gram/day
same,piglets died (number),crossbred piglets; [8],9 piglets
same,piglets died (percentage of group),crossbred piglets; [8],13%
same,Pathology and histology: adverse effects of treatment,crossbred piglets; in vivo,no adverse effects
"COC(=O)[C@@H](N)CCCNC(=N)N[N+](=O)[O-] [L-NAME, L-nitro-arginine methyl ester]",neuroprotection,neonatal rats [4],neuroprotective
N=C(N)NN [aminoguanidine],infarct volumes,neonatal rats [5],reduced infarct volumes
O=[N+]([O-])c1cccc2cn[nH]c12 [7-nitroindazole],apoptosis,neuronal NOS,effective in reducing apoptosis
same,levels of citrulline,neuronal NOS,reducing the levels of citrulline
"CC(=O)N(O)CCCCCNC(=O)CCC(=O)N(O)CCCCCNC(=O)CCC(=O)N(O)CCCCCN [DFO, deferoxamine, reference compound]",piglets died post HI,[1],1 piglet
"N=C(NCCC[C@H](N)C(=O)O)N[N+](=O)[O-] [NNLA, N^G-nitro-L-arginine]",cerebral energy status during and after hypoxia-ischemia,newborn piglets,compromised
